Test system: HUVECs treated with TNF-α/IL-1β
Assay: Rescue of TNF-α/IL-1β-induced EndMT in HUVECs
Type: cell-based, human
Details: 10 μM, HUVECs with TNF-α/IL-1β 6 days
Description: Human umbilical vein ECs (HUVECs; Lonza) were grown in EGM-2 (comprising EBM-2 with growth factors and other supplements) with 2% Foetal Bovine Serum. Confluent HUVECs were treated with 10 ng/ml TNF-α, IL-1β, TGFβ2 (PeproTech); medium and cytokines were changed every two days. SB431542 (Tocris) has been used at the dose of 10 μM. HEK293T cells (ATCC®, CRL-11268) were cultured in D-MEM with 10% FBS (Life Technologies).
Total RNA was extracted using miReasy kit (Qiagen). Real-time quantification to measure miRNAs was performed with the TaqMan miRNA reverse transcription kit and miRNA assay (Life Technology) using Lightcycler 480 (Roche). miRNAs expression was normalized to the U6 […] (snRU6). For mRNA analysis, cDNA was amplified by quantitative real-time PCR (qPCR) and normalized to 18S ribosomal RNA. Each reaction was performed in triplicate. Quantification was performed by the 2^−ΔΔCt method^52. qPCR was used to measure the expression of miR-148b (miR-148b-3p Thermo Fisher Scientific, Cat. #4426961), snRU6 (ThermoFisher Scientific, Cat. #4331182), TGFβ2, SMAD2, CD31, VE-Cadherin, COL1A1, α-SMA, SLUG, VIM, SNAIL, TWIST, ZEB1/2 and 18S rRNA. Primers are pre-designed from Sigma (KiCgStart™ Primers).
Lipofectamine RNAiMAX (Thermo Fisher Scientific) was used to transfect HUVECs with miR-148b mimic, anti-miR-148b and mimic or anti-miR control (25 nM and […], respectively final concentration) or with siRNA targeting SMAD2 (20 nM final concentration), according to the manufacturer's instructions. jetPEI-HUVECs (Polyplus) was used to transfect HUVECs with DNA plasmids. The following functional assays were performed: BrdU incorporation assay using Cell Proliferation colorimetric assay (Roche); Matrigel assay with HUVECs was performed as previously described using BD Matrigel Basement Membrane Matrix (BD Biosciences)^53.
Proteins were extracted from cultured cells or muscles by using ice-cold buffer A (50 mM Hepes, 150 mM NaCl, 1 mM EDTA, 1 mM EGTA, 25 mM NaF, 5 mM NaPPi, 1%Triton, 1% NP40, 1 mM Na3VO4, 0.25% sodium deoxycholate, 0.5 mM Na-orthovanadate, 1 mM benzamidine, 0.1 mM phenylmethylsulfonyl fluoride). Protein concentration was determined using the Bio-Rad Protein Assay Reagent (Bio-Rad Laboratories, UK). Detection of proteins by Western blot analyses was done following separation of whole cell extracts (20 μg) on SDS-polyacrylamide gels. Proteins were transferred to nitrocellulose membranes and probed with the following antibodies: TGFβ2 (Abcam, ab36495, 1:1000), SMAD2 (SantaCruz Biotechnology, Santa Cruz, Calif., USA; #3102, 1:1000), p-SMAD2 (465/467) (Cell Signaling; #3108, 1:1000); CD31 (Abcam., 1:1000), VE-Cadherin (Abcam, ab33168, 1:1000), COL1A1 (Abcam, ab138492, 1:200), FSP-1 (5100A4; Abcam, ab41532, 1:1000), SLUG (Abcam, ab27568, 1:1000), β-actin (Abcam, ab16039, 1:4000), HDAC3 (GeneTex GTX113303, 1:1000) and GAPDH (GeneTex, GT239, 1:1000) (both used as loading control). For detection, the inventors used secondary antibodies conjugated to horseradish peroxidase which were rabbit anti-mouse (Abcam, ab97046, 1:5000) and goat anti-rabbit (Abcam, ab6721, 1:10000). Detection was developed by chemiluminescence reaction (ECL) (Immunoblot, Millipore, 23225).
Cells were fixed using 4% paraformaldehyde in PBS at room temperature for 15 min. For intracellular staining, fixed cells were permeabilized using 0.5% Triton X-100 in PBS (Sigma-Aldrich) or 0.1% Saponin in PBS at room temperature for 10 min. The blocking of […] antibody activity was performed using 3% bovine serum albumin (BSA) in PBS for 1 hour. Samples were incubated with antibodies to CD31 (Abcam, ab28364, 1:50), VE-cadherin (Abcam, ab33168, 1:100), FSP-1 (Abcam, ab41532, 1:200) and COL1A1 (Abcam, ab138492, 1:100) in PBS containing 1% BSA at 4° C. overnight. […]

`NC(=O)c1ccc(-c2nc(-c3ccc4c(c3)OCO4)c(-c3ccccn3)[nH]2)cc1` [SB431542, reference compound] was tested, and the “endothelial markers (CD31, VE-Cadherin) expression” value was “did not rescue”, the “level of SMAD2 phosphorylation” value was “reduced” and the “endothelial markers (CD31, VE-Cadherin) expression” value (listed as SB43152) was “did not restore”.
